Data as given in ChEMBL document CHEMBL1221200, “Diarylquinolines target subunit c of mycobacterial ATP synthase” (Nat Chem Biol, 2007).
Values after ≈ are worked out from the molar mass of the structure shown.

System: Mycobacterium tuberculosis
Test: Antimicrobial activity against Mycobacterium bovis BCG by alamar blue assay
Format: functional, variant bovis BCG

COc1nc2ccc(Br)cc2cc1[C@@H](c1ccccc1)[C@@](O)(CCN(C)C)c1cccc2ccccc12 (single isomer, unassigned) [BEDAQUILINE]
MIC90: 1.8 µg/mL (≈ 3.24 µM)

COc1nc2ccc(Br)cc2cc1[C@H](c1ccccc1)[C@@](O)(CCN(C)C)c1cccc2ccccc12 (racemic; 1c)
MIC90: 7.9 µg/mL (≈ 14.2 µM)

COc1nc2ccc(Br)cc2cc1[C@H](c1ccccc1)[C@@](O)(CCN(C)C)c1cccc2ccccc12 (racemic; 1d)
MIC90: 1.8 µg/mL (≈ 3.24 µM)

CO[C@H]1/C=C/O[C@@]2(C)Oc3c(C)c(O)c4c(O)c(c(/C=N/N5CCN(C)CC5)c(O)c4c3C2=O)NC(=O)/C(C)=C\C=C\[C@H](C)[C@H](O)[C@@H](C)[C@@H](O)[C@@H](C)[C@H](OC(C)=O)[C@@H]1C [RIFAMPIN]
MIC90 (Mycobacterium tuberculosis, variant bovis BCG, read-out: MIC90): 0.02 µg/mL (≈ 0.0243 µM)

COc1nc2ccc(Br)cc2cc1[C@@H](c1ccccc1)[C@@](O)(CCN(C)C)c1cccc2ccccc12 [BEDAQUILINE]
MIC90: 0.07 µg/mL (≈ 0.126 µM)
